Test results as given in EP1972624A1, “Benzoxazinones and their use as ultraviolet light absorbers” (Clariant International Ltd., priority 2007, dated 2008).
≈ marks a conversion by molar mass, not a printed value.

Tests used:
Format in all cases: physicochemical
[1] = UV/vis: λmax and ε in CH2Cl2 by UV spectrophotometer; conditions: dissolved in CH2Cl2
Method: λmax (lambda max) and ε (epsilon) values of the compounds of formula (I) are determined dissolved in CH2Cl2 using an UV spectrophotometer. These values are obtained by balancing the measurements performed on compound solutions at three different concentrations.

[2] = Decomposition point (DP) by DSC; conditions: sealed aluminum pan, 40 to 400°C, 10°C/min, nitrogen
Method: The decomposition point (DP) is determined using a TA Instruments DSC Q100 apparatus, the compound being incorporated into a sealed aluminum pan. Analysis conditions are as following: Temperature range from 40 to 400°C, heating rate 10°C/min, nitrogen flow of 50 ml/min. Values are determined by single measurement.

[3] = Solubility in organic solvents; conditions: for Solubility in Dowanol PMA: Dowanol PMA (CH3COO2CH(CH3)CH2OCH3)

Compound	εmax [1]	λmax [1]	DP (decomposition point) [2]	Solubility in xylene [3]	Solubility in Dowanol PMA [3]
O=c1oc(-c2sc3ccccc3c2Cl)nc2ccccc12 [(Ij)]	29000 L/mol/cm	338 nm	≥ 390 °C	< 5 mg/mL	–
CCCCC(CC)C(=O)Oc1c(-c2nc3ccccc3c(=O)o2)sc2ccccc12 (stereo not drawn) [(Ih)]	24100 L/mol/cm	337 nm	375 °C	10 mg/mL (≈ 23.7 mM)	–
CCCCCCCCCCCCCCCCOc1c(-c2nc3ccccc3c(=O)o2)sc2ccccc12 [(Id)]	31900 L/mol/cm	341 nm	384 °C	100 mg/mL (≈ 192 mM)	–
CCCCCCCCCCCc1c(-c2nc3ccccc3c(=O)o2)sc2ccc(C)cc12 [(Ie)]	25900 L/mol/cm	343 nm	≥ 400 °C	40 mg/mL (≈ 89.4 mM)	–
CC(=O)Oc1c(-c2nc3ccccc3c(=O)o2)sc2ccccc12 [(If)]	28700 L/mol/cm	337 nm	351 °C	< 10 mg/mL	–
CCCCCCCCOc1c(-c2nc3ccccc3c(=O)o2)sc2ccccc12 [(Ia)]	26000 L/mol/cm	341 nm	370 °C	> 100 mg/mL	> 50 mg/mL
O=C(Oc1c(-c2nc3ccccc3c(=O)o2)sc2ccccc12)c1ccccc1 [(Ii)]	25500 L/mol/cm	338 nm	≥ 400 °C	< 10 mg/mL	–
CCCCCCCCCCCCOc1c(-c2nc3ccccc3c(=O)o2)sc2ccccc12 [(Ic)]	21800 L/mol/cm	342 nm	381 °C	120 mg/mL (≈ 259 mM)	–
CCCCC(CC)COc1c(-c2nc3ccccc3c(=O)o2)sc2ccccc12 (stereo not drawn) [(Ib)]	26200 L/mol/cm	341 nm	385 °C	> 100 mg/mL	> 50 mg/mL
CCCC(=O)Oc1c(-c2nc3ccccc3c(=O)o2)sc2ccccc12 [(Ig)]	26400 L/mol/cm	337 nm	352 °C	< 10 mg/mL	–
